Laboratory results reported in patent US11331299B2, “Medicinal use of serrulatane diterpenes” (The University of Sydney, priority 2016, dated 2022).
pEC50, pIC50: −log10 of the molar value. Read-outs that look alike come from different tables or passages of the source.

Tested on: 280 human cancer cell lines
Test: OncoPanel cell proliferation assay (10-day)
Format: cell-based
Conditions: Homo sapiens; for pEC50: read-out: Cell Count EC50; for GI50: read-out: Cell Count GI50; for pIC50: read-out: Cell Count IC50
[1] = Caov-3, CaOV3, Female GU - Ovary
[2] = ChaGo-K-1, ChaGoK1, Lung - NSCLC
[3] = D341 Med, CNS - Medulloblastoma
[4] = Detroit 562, Detroit 562, Head and Neck
[5] = DoTc2-4510, DoTc2 4510, Lymphoma
[6] = G292, G-292, clone A141B1, Soft Tissue - Osteosarcoma
[7] = HEL 92.1.7, HEL-92-1-7, Leukemia
[8] = HOS, Soft Tissue - Osteosarcoma
[9] = HT-1080, HT-1080, Soft Tissue - Sarcoma
[10] = HUH-6-clone5, HUH-6 Clone 5, Liver
[11] = Hs 821.T, Soft Tissue - Sarcoma
[12] = Hs 888.Sk, Soft Tissue - Osteosarcoma

CC(C)=CCC[C@H](C)[C@@H]1CC[C@@H](C)c2c1cc(C)c(O)c2O [Compound 4, 7,8-dihydroxyserrulat-14-ene]
pEC50 [1]: 4.99
GI50 [1]: 10.2 µM
pIC50 [1]: 4.99
pEC50 (Capan-2, Capan-2, Pancreas): 4.61
GI50 (Capan-2, Capan-2, Pancreas): 24.7 µM
pIC50 (Capan-2, Capan-2, Pancreas): 4.61
pEC50 [2]: 5.05
GI50 [2]: 8.82 µM
pIC50 [2]: 5.05
pEC50 [3]: 5.07
GI50 [3]: 8.4 µM
pIC50 [3]: 5.07
pEC50 (DB, Lymphoma): 5.41
GI50 (DB, Lymphoma): 3.84 µM
pIC50 (DB, Lymphoma): 5.41
pEC50 (DBTRG-05MG, CNS - Glioma): 4.75
GI50 (DBTRG-05MG, CNS - Glioma): 17.4 µM
pIC50 (DBTRG-05MG, CNS - Glioma): 4.75
pEC50 (DK-MG, CNS - Glioma): 4.76
GI50 (DK-MG, CNS - Glioma): 16.4 µM
pIC50 (DK-MG, CNS - Glioma): 4.76
pEC50 (DLD-1, DLD-1, Colon): 4.80
GI50 (DLD-1, DLD-1, Colon): 15.7 µM
pIC50 (DLD-1, DLD-1, Colon): 4.80
pEC50 (DMS-53, DMS53, Lung - SCLC): 5.05
GI50 (DMS-53, DMS53, Lung - SCLC): 8.6 µM
pIC50 (DMS-53, DMS53, Lung - SCLC): 5.05
pEC50 (DMS-114, DMS114, Lung - SCLC): 4.94
GI50 (DMS-114, DMS114, Lung - SCLC): 11.4 µM
pIC50 (DMS-114, DMS114, Lung - SCLC): 4.94
pEC50 (DOHH-2, DOHH-2, Lymphoma): 5.65
GI50 (DOHH-2, DOHH-2, Lymphoma): 2.24 µM
pIC50 (DOHH-2, DOHH-2, Lymphoma): 5.65
pEC50 (DU-145, DU145, Prostate): 4.74
GI50 (DU-145, DU145, Prostate): 18.1 µM
pIC50 (DU-145, DU145, Prostate): 4.74
pEC50 (Daoy, CNS - Medulloblastoma): 5.50
GI50 (Daoy, CNS - Medulloblastoma): 3.19 µM
pIC50 (Daoy, CNS - Medulloblastoma): 5.50
pEC50 (Daudi, Lymphoma): 5.64
GI50 (Daudi, Lymphoma): 2.28 µM
pIC50 (Daudi, Lymphoma): 5.64
pEC50 [4]: 4.60
GI50 [4]: 25 µM
pIC50 [4]: 4.60
pEC50 [5]: 5.03
GI50 [5]: 9.09 µM
pIC50 [5]: 5.03
pEC50 (EB2, Lymphoma): 5.08
GI50 (EB2, Lymphoma): 8.32 µM
pIC50 (EB2, Lymphoma): 5.08
pEC50 (EB-3, Lymphoma): 5.41
GI50 (EB-3, Lymphoma): 3.93 µM
pIC50 (EB-3, Lymphoma): 5.41
pEC50 (EFM-19, EFM-19, Breast): 4.92
GI50 (EFM-19, EFM-19, Breast): 11.3 µM
pIC50 (EFM-19, EFM-19, Breast): 4.92
pEC50 (EM-2, Leukemia): 5.40
GI50 (EM-2, Leukemia): 4 µM
pIC50 (EM-2, Leukemia): 5.40
pEC50 (FaDu, Head and Neck): 5.08
GI50 (FaDu, Head and Neck): 8.28 µM
pIC50 (FaDu, Head and Neck): 5.08
pEC50 [6]: 5.21
GI50 [6]: 6.07 µM
pIC50 [6]: 5.20
pEC50 (G-361, G-361, Skin (Melanoma)): 4.86
GI50 (G-361, G-361, Skin (Melanoma)): 13.8 µM
pIC50 (G-361, G-361, Skin (Melanoma)): 4.86
pEC50 (G-401, G-401, Kidney): 5.09
GI50 (G-401, G-401, Kidney): 8.05 µM
pIC50 (G-401, G-401, Kidney): 5.09
pEC50 (GA-10, GA-10, Lymphoma): 5.91
GI50 (GA-10, GA-10, Lymphoma): 1.23 µM
pIC50 (GA-10, GA-10, Lymphoma): 5.91
pEC50 (H4, CNS - Glioma): 4.89
GI50 (H4, CNS - Glioma): 13 µM
pIC50 (H4, CNS - Glioma): 4.89
pEC50 (HCT-15, HCT-15, Colon): 4.87
GI50 (HCT-15, HCT-15, Colon): 13.4 µM
pIC50 (HCT-15, HCT-15, Colon): 4.87
pEC50 (HCT-116, HCT-116, Colon): 4.99
GI50 (HCT-116, HCT-116, Colon): 10.3 µM
pIC50 (HCT-116, HCT-116, Colon): 4.99
pEC50 (HEC-1-A, Female GU - Uterus): 4.91
GI50 (HEC-1-A, Female GU - Uterus): 12.2 µM
pIC50 (HEC-1-A, Female GU - Uterus): 4.91
pEC50 [7]: 5.39
GI50 [7]: 4.05 µM
pIC50 [7]: 5.39
pEC50 (HLE, Liver): 5.14
GI50 (HLE, Liver): 7.15 µM
pIC50 (HLE, Liver): 5.14
pEC50 (HLF, Liver): 5.06
GI50 (HLF, Liver): 8.7 µM
pIC50 (HLF, Liver): 5.06
pEC50 (HMCB, Skin (Melanoma)): 5.02
GI50 (HMCB, Skin (Melanoma)): 9.38 µM
pIC50 (HMCB, Skin (Melanoma)): 5.02
pEC50 [8]: 5.51
GI50 [8]: 3.08 µM
pIC50 [8]: 5.51
pEC50 (HPAF-II, Pancreas): 4.91
GI50 (HPAF-II, Pancreas): 12.4 µM
pIC50 (HPAF-II, Pancreas): 4.90
pEC50 (HT1197, HT-1197, Bladder): 4.81
GI50 (HT1197, HT-1197, Bladder): 15.2 µM
pIC50 (HT1197, HT-1197, Bladder): 4.81
pEC50 (HT, Lymphoma): 5.35
GI50 (HT, Lymphoma): 4.46 µM
pIC50 (HT, Lymphoma): 5.35
pEC50 (HT-3, Female GU - Cervix): 4.84
GI50 (HT-3, Female GU - Cervix): 14.3 µM
pIC50 (HT-3, Female GU - Cervix): 4.84
pEC50 (HT-29, HT-29, Colon): 4.77
GI50 (HT-29, HT-29, Colon): 17 µM
pIC50 (HT-29, HT-29, Colon): 4.77
pEC50 [9]: 5.35
GI50 [9]: 4.42 µM
pIC50 [9]: 5.35
pEC50 (HT-1376, HT1376, Bladder): 4.85
GI50 (HT-1376, HT1376, Bladder): 13.8 µM
pIC50 (HT-1376, HT1376, Bladder): 4.85
pEC50 [10]: 5.02
GI50 [10]: 9.46 µM
pIC50 [10]: 5.02
pEC50 (HeLa, Female GU - Cervix): 4.68
GI50 (HeLa, Female GU - Cervix): 21.1 µM
pIC50 (HeLa, Female GU - Cervix): 4.68
pEC50 (HepG2, HepG2, Liver): 4.59
GI50 (HepG2, HepG2, Liver): 25.6 µM
pIC50 (HepG2, HepG2, Liver): 4.59
pEC50 (Hs 229.T, Lung - NSCLC): 4.59
GI50 (Hs 229.T, Lung - NSCLC): 25.2 µM
pIC50 (Hs 229.T, Lung - NSCLC): 4.58
pEC50 (Hs 294T, Skin (Melanoma)): 5.08
GI50 (Hs 294T, Skin (Melanoma)): 8.23 µM
pIC50 (Hs 294T, Skin (Melanoma)): 5.08
pEC50 (Hs 445, Hs 445, Lymphoma): 5.24
GI50 (Hs 445, Hs 445, Lymphoma): 5.74 µM
pIC50 (Hs 445, Hs 445, Lymphoma): 5.24
pEC50 (Hs 611.T, Lymphoma): 5.29
GI50 (Hs 611.T, Lymphoma): 5.05 µM
pIC50 (Hs 611.T, Lymphoma): 5.29
pEC50 (Hs 683, Hs 683, CNS - Glioma): 4.61
GI50 (Hs 683, Hs 683, CNS - Glioma): 24.3 µM
pIC50 (Hs 683, Hs 683, CNS - Glioma): 4.61
pEC50 (Hs 688(A).T, Skin (Melanoma)): 5.13
GI50 (Hs 688(A).T, Skin (Melanoma)): 6.88 µM
pIC50 (Hs 688(A).T, Skin (Melanoma)): 5.11
pEC50 (Hs746T, HS 746T, Stomach): 4.70
GI50 (Hs746T, HS 746T, Stomach): 17.1 µM
pIC50 (Hs746T, HS 746T, Stomach): 4.70
pEC50 (Hs766T, Hs 766T, Pancreas): 5.03
GI50 (Hs766T, Hs 766T, Pancreas): 9.08 µM
pIC50 (Hs766T, Hs 766T, Pancreas): 5.03
pEC50 [11]: 4.90
GI50 [11]: 9.99 µM
pIC50 [11]: 4.89
pEC50 [12]: 4.91
GI50 [12]: 12.1 µM
pIC50 [12]: 4.90
pEC50 (Hs 934.T, Skin (Melanoma)): 4.95
GI50 (Hs 934.T, Skin (Melanoma)): 10.2 µM
pIC50 (Hs 934.T, Skin (Melanoma)): 4.94
pEC50 (Hs 936.T(C1), Skin (Melanoma)): 5.04
GI50 (Hs 936.T(C1), Skin (Melanoma)): 10.2 µM
pIC50 (Hs 936.T(C1), Skin (Melanoma)): 4.98
pEC50 (Hs-578T, Hs 578T, Breast): 4.82
GI50 (Hs-578T, Hs 578T, Breast): 14.9 µM
pIC50 (Hs-578T, Hs 578T, Breast): 4.82
pEC50 (HuCCT-1, HuCCT1, Liver): 4.61
GI50 (HuCCT-1, HuCCT1, Liver): 24.8 µM
pIC50 (HuCCT-1, HuCCT1, Liver): 4.61
pEC50 (HuP-T4, HuP-T4, Pancreas): 4.86
GI50 (HuP-T4, HuP-T4, Pancreas): 13.6 µM
pIC50 (HuP-T4, HuP-T4, Pancreas): 4.86
pEC50 (J82, Bladder): 5.21
GI50 (J82, Bladder): 6.09 µM
pIC50 (J82, Bladder): 5.21
pEC50 (JAR, Placenta): 5.19
GI50 (JAR, Placenta): 6.49 µM
pIC50 (JAR, Placenta): 5.19
pEC50 (JEG-3, JEG-3, Placenta): 5.19
GI50 (JEG-3, JEG-3, Placenta): 6.48 µM
pIC50 (JEG-3, JEG-3, Placenta): 5.19
pEC50 (JIYOYE, Lymphoma): 5.45
GI50 (JIYOYE, Lymphoma): 3.55 µM
pIC50 (JIYOYE, Lymphoma): 5.45
pEC50 (JeKo-1, JeKo-1, Lymphoma): 5.41
GI50 (JeKo-1, JeKo-1, Lymphoma): 3.91 µM
pIC50 (JeKo-1, JeKo-1, Lymphoma): 5.41
pEC50 (Jurkat, Leukemia): 5.44
GI50 (Jurkat, Leukemia): 3.58 µM
pIC50 (Jurkat, Leukemia): 5.44
pEC50 (K562, K562, Leukemia): 4.91
GI50 (K562, K562, Leukemia): 12.2 µM
pIC50 (K562, K562, Leukemia): 4.91
pEC50 (KATO III, Stomach): 4.96
GI50 (KATO III, Stomach): 11.1 µM
pIC50 (KATO III, Stomach): 4.95
pEC50 (KHOS-240S, Soft Tissue - Osteosarcoma): 5.30
